From patent US20250261636A1, “QUATERNARY AMMONIUM SANITIZING COMPOSITION” (ECOLAB USA INC., priority 2020, published 2025)
Several values for one entry are separate records, joined by “and”; a condition that tells them apart may be missing. Equal values may be shown once.

Experiments:
[1] = test system: Escherichia coli ATCC 11229; assay: AOAC Method 960.09 Germicidal and Detergent Sanitizing Action of Disinfectants, food contact sanitizing suspension test; format: cell-based; conditions: for Log Reduction: per replicate
Experimental: (§1) The microbial efficacy of the multipurpose sanitizing composition was evaluated for food contact applications. The purpose of the testing is to determine the efficacy of compositions used for sanitizing food contact surfaces, which in the evaluations were pre-cleaned, non-porous surfaces using AOAC Method 960.09 Germicidal and Detergent Sanitizing Action of Disinfectants. […] The test organisms included Staphylococcus aureus ATCC 6538 and Escherichia coli ATCC 11229.
(§2) The pH was adjusted by use of a polycarboxylic acid (unless otherwise noted, such as the polycarboxylate citrate tested at pH 8). In this screening test pH 9, 8, 7, 5, 4, and 3 were tested. “NT” indicates a condition was “Not Tested.”

[2] = test system: Staphylococcus aureus ATCC 6538; assay: as above; format: cell-based; conditions: 30 ppm, pH 5, 120° F.
Experimental: as §1, §2

[3] = 30 ppm, pH 5, 120° F., listed as Stepan Quat

Compound | Average Log Reduction ([1]; 30 ppm, pH 5, 120° F.) [log] | CFU - Dilution 1E−01 ([1]; 30 ppm, pH 5, 120° F.) | CFU - Dilution 1E−02 ([1]; 30 ppm, pH 5, 120° F.) | CFU/mL ([1]; 30 ppm, pH 5, 120° F.) [CFU/mL] | Log ([1]; 30 ppm, pH 5, 120° F.) | Log Reduction ([1]; 30 ppm, pH 5, 120° F.) [log] | Average Log Reduction ([1]; 30 ppm, pH 7, 120° F.) [log] | log reduction E. coli (ATCC 11229) ([1]; 60 ppm, pH 5, 120° F.) [log] | log reduction E. coli (ATCC 11229) ([1]; 60 ppm, pH 7, 120° F.) [log] | log reduction E. coli (ATCC 11229) ([1]; 90 ppm, pH 5, 120° F.) [log] | log reduction E. coli (ATCC 11229) ([1]; 90 ppm, pH 7, 120° F.) [log] | Log Reduction [1, 3] | CFU - Dilution 1E−01 [1, 3] | CFU/mL [1, 3] | Log [1, 3] | log reduction S. aureus (ATCC 6538) [2] [log]
CCCCCCCC[N+](C)(C)CCCCCCCC.[Cl-] [Bardac LF, dioctyl dimethyl ammonium chloride] | 3.06 | TNTC | TNTC | 3.0E+04 | 4.48 | 3.06 | 3.06 | 3.06 | 3.06 | 3.06 | 3.06 |  |  |  |  | 
didecyl dimethyl ammonium methyl sulfonate/sulfate [Quat] | 4.93 |  |  |  |  |  |  |  |  |  |  | 4.85 log and 5.02 log | 63 CFU and 46 CFU | 6.8E+02 CFU/mL and 4.6E+02 CFU/mL | 2.83 and 2.67 | 6.69
